According to patent US8124357B2 (priority 2005, dated 2012):

System: Neuro-2A cells
Assay type: cell-based

## CC1=C(/C=C/C(C)=C/C=C/C(C)=C/C(=O)O)C(C)(C)CCC1 [all trans retinoic acid, All Trans-Retinoic acid]
  BoNT/A SNAP25197-cleavage product (uptake of BoNT/A) after differentiation reagent: increase
